According to the NIST ThermoML archive (doi:10.1021/je800012v):
± gives the expanded uncertainty stated by the source.

Settings: Liquid

Compound `CCCCCC` [hexane] has a mass density (283.15 K, 100 kPa) of 668.07 ± 0.32 kg/m3, a mass density (283.15 K, 2500 kPa) of 670.36 ± 0.38 kg/m3 and a mass density (283.15 K, 5000 kPa) of 672.69 ± 0.44 kg/m3. It also gave a mass density (283.15 K, 10000 kPa) of 677.06 ± 0.56 kg/m3, a mass density (283.15 K, 15000 kPa) of 681.19 ± 0.68 kg/m3 and a mass density (283.15 K, 20000 kPa) of 685.08 ± 0.8 kg/m3. The mass density (283.15 K, 25000 kPa) was 688.82 ± 0.91 kg/m3, the mass density (283.15 K, 30000 kPa) was 692.35 ± 1 kg/m3 and the mass density (283.15 K, 35000 kPa) was 695.65 ± 1.1 kg/m3. The mass density (293.15 K, 100 kPa) was 659.18 ± 0.33 kg/m3, the mass density (293.15 K, 2500 kPa) was 661.67 ± 0.39 kg/m3 and the mass density (293.15 K, 5000 kPa) was 664.17 ± 0.45 kg/m3. It also gave a mass density (293.15 K, 10000 kPa) of 668.87 ± 0.58 kg/m3, a mass density (293.15 K, 15000 kPa) of 673.27 ± 0.7 kg/m3 and a mass density (293.15 K, 20000 kPa) of 677.4 ± 0.81 kg/m3. For the same compound, the mass density (293.15 K, 25000 kPa) was 681.33 ± 0.93 kg/m3, the mass density (293.15 K, 30000 kPa) was 685.07 ± 1 kg/m3 and the mass density (293.15 K, 35000 kPa) was 688.63 ± 1.1 kg/m3. For the same compound, the mass density (298.15 K, 100 kPa) was 654.61 ± 0.33 kg/m3, the mass density (298.15 K, 2500 kPa) was 657.21 ± 0.4 kg/m3 and the mass density (298.15 K, 5000 kPa) was 659.81 ± 0.46 kg/m3. For the same compound, the mass density (298.15 K, 10000 kPa) was 664.66 ± 0.58 kg/m3, the mass density (298.15 K, 15000 kPa) was 669.24 ± 0.7 kg/m3 and the mass density (298.15 K, 20000 kPa) was 673.51 ± 0.82 kg/m3. For the same compound, the mass density (298.15 K, 25000 kPa) was 677.56 ± 0.94 kg/m3, the mass density (298.15 K, 30000 kPa) was 681.4 ± 1.1 kg/m3 and the mass density (298.15 K, 35000 kPa) was 685.02 ± 1.2 kg/m3. The mass density (303.15 K, 100 kPa) was 649.97 ± 0.34 kg/m3, the mass density (303.15 K, 2500 kPa) was 652.7 ± 0.4 kg/m3 and the mass density (303.15 K, 5000 kPa) was 655.36 ± 0.46 kg/m3. It also gave a mass density (303.15 K, 10000 kPa) of 660.53 ± 0.59 kg/m3, a mass density (303.15 K, 15000 kPa) of 665.23 ± 0.71 kg/m3 and a mass density (303.15 K, 20000 kPa) of 669.63 ± 0.83 kg/m3. For the same compound, the mass density (303.15 K, 25000 kPa) was 673.81 ± 0.95 kg/m3, the mass density (303.15 K, 30000 kPa) was 677.77 ± 1.1 kg/m3 and the mass density (303.15 K, 35000 kPa) was 681.45 ± 1.2 kg/m3. For the same compound, the mass density (313.15 K, 100 kPa) was 640.82 ± 0.35 kg/m3, the mass density (313.15 K, 2500 kPa) was 643.76 ± 0.41 kg/m3 and the mass density (313.15 K, 5000 kPa) was 646.69 ± 0.47 kg/m3. It also gave a mass density (313.15 K, 10000 kPa) of 652.13 ± 0.6 kg/m3, a mass density (313.15 K, 15000 kPa) of 657.16 ± 0.73 kg/m3 and a mass density (313.15 K, 20000 kPa) of 661.86 ± 0.85 kg/m3. The mass density (313.15 K, 25000 kPa) was 666.28 ± 0.97 kg/m3, the mass density (313.15 K, 30000 kPa) was 670.44 ± 1.1 kg/m3 and the mass density (313.15 K, 35000 kPa) was 674.41 ± 1.2 kg/m3. The mass density (323.15 K, 100 kPa) was 631.41 ± 0.35 kg/m3, the mass density (323.15 K, 2500 kPa) was 634.61 ± 0.42 kg/m3 and the mass density (323.15 K, 5000 kPa) was 637.8 ± 0.48 kg/m3. For the same compound, the mass density (323.15 K, 10000 kPa) was 643.69 ± 0.62 kg/m3, the mass density (323.15 K, 15000 kPa) was 649.12 ± 0.74 kg/m3 and the mass density (323.15 K, 20000 kPa) was 654.14 ± 0.87 kg/m3. For the same compound, the mass density (323.15 K, 25000 kPa) was 658.84 ± 0.99 kg/m3, the mass density (323.15 K, 30000 kPa) was 663.23 ± 1.1 kg/m3 and the mass density (323.15 K, 35000 kPa) was 667.4 ± 1.2 kg/m3. The mass density (333.15 K, 100 kPa) was 621.8 ± 0.36 kg/m3, the mass density (333.15 K, 2500 kPa) was 625.32 ± 0.43 kg/m3 and the mass density (333.15 K, 5000 kPa) was 628.77 ± 0.5 kg/m3. It also gave a mass density (333.15 K, 10000 kPa) of 635.13 ± 0.63 kg/m3, a mass density (333.15 K, 15000 kPa) of 640.94 ± 0.76 kg/m3 and a mass density (333.15 K, 20000 kPa) of 646.27 ± 0.89 kg/m3. It also gave a mass density (333.15 K, 25000 kPa) of 651.23 ± 1 kg/m3, a mass density (333.15 K, 30000 kPa) of 655.89 ± 1.1 kg/m3 and a mass density (333.15 K, 35000 kPa) of 660.3 ± 1.2 kg/m3.

Work on `CCCCCl` [1-chlorobutane] yielded a mass density (283.15 K, 100 kPa) of 897.21 ± 0.17 kg/m3, a mass density (283.15 K, 2500 kPa) of 899.51 ± 0.19 kg/m3 and a mass density (283.15 K, 5000 kPa) of 901.82 ± 0.2 kg/m3. The mass density (283.15 K, 10000 kPa) was 906.3 ± 0.24 kg/m3, the mass density (283.15 K, 15000 kPa) was 910.57 ± 0.26 kg/m3 and the mass density (283.15 K, 20000 kPa) was 914.69 ± 0.29 kg/m3. For the same compound, the mass density (283.15 K, 25000 kPa) was 918.63 ± 0.31 kg/m3, the mass density (283.15 K, 30000 kPa) was 922.33 ± 0.34 kg/m3 and the mass density (283.15 K, 35000 kPa) was 926.05 ± 0.36 kg/m3. It also gave a mass density (293.15 K, 100 kPa) of 886.18 ± 0.18 kg/m3, a mass density (293.15 K, 2500 kPa) of 888.63 ± 0.2 kg/m3 and a mass density (293.15 K, 5000 kPa) of 891.13 ± 0.21 kg/m3. The mass density (293.15 K, 10000 kPa) was 895.89 ± 0.25 kg/m3, the mass density (293.15 K, 20000 kPa) was 904.73 ± 0.31 kg/m3 and the mass density (293.15 K, 25000 kPa) was 908.9 ± 0.34 kg/m3. It also gave a mass density (293.15 K, 30000 kPa) of 912.88 ± 0.36 kg/m3, a mass density (293.15 K, 35000 kPa) of 916.77 ± 0.38 kg/m3 and a mass density (298.15 K, 100 kPa) of 880.63 ± 0.18 kg/m3. The mass density (298.15 K, 2500 kPa) was 883.17 ± 0.2 kg/m3, the mass density (298.15 K, 5000 kPa) was 885.72 ± 0.22 kg/m3 and the mass density (298.15 K, 10000 kPa) was 890.65 ± 0.25 kg/m3. The mass density (298.15 K, 15000 kPa) was 895.36 ± 0.29 kg/m3, the mass density (298.15 K, 20000 kPa) was 899.79 ± 0.32 kg/m3 and the mass density (298.15 K, 25000 kPa) was 904.09 ± 0.35 kg/m3. The mass density (298.15 K, 30000 kPa) was 908.22 ± 0.37 kg/m3, the mass density (298.15 K, 35000 kPa) was 912.17 ± 0.4 kg/m3 and the mass density (303.15 K, 100 kPa) was 874.92 ± 0.18 kg/m3. For the same compound, the mass density (303.15 K, 2500 kPa) was 877.59 ± 0.21 kg/m3, the mass density (303.15 K, 5000 kPa) was 880.23 ± 0.22 kg/m3 and the mass density (303.15 K, 10000 kPa) was 885.43 ± 0.26 kg/m3. It also gave a mass density (303.15 K, 15000 kPa) of 890.24 ± 0.29 kg/m3, a mass density (303.15 K, 20000 kPa) of 894.84 ± 0.33 kg/m3 and a mass density (303.15 K, 25000 kPa) of 899.24 ± 0.36 kg/m3. For the same compound, the mass density (303.15 K, 30000 kPa) was 903.46 ± 0.39 kg/m3, the mass density (303.15 K, 35000 kPa) was 907.47 ± 0.41 kg/m3 and the mass density (313.15 K, 100 kPa) was 863.82 ± 0.19 kg/m3. It also gave a mass density (313.15 K, 2500 kPa) of 866.65 ± 0.21 kg/m3, a mass density (313.15 K, 5000 kPa) of 869.49 ± 0.23 kg/m3 and a mass density (313.15 K, 10000 kPa) of 874.93 ± 0.27 kg/m3. The mass density (313.15 K, 15000 kPa) was 880.07 ± 0.31 kg/m3, the mass density (313.15 K, 20000 kPa) was 884.94 ± 0.35 kg/m3 and the mass density (313.15 K, 25000 kPa) was 889.61 ± 0.38 kg/m3. For the same compound, the mass density (313.15 K, 30000 kPa) was 894.04 ± 0.41 kg/m3, the mass density (313.15 K, 35000 kPa) was 898.33 ± 0.44 kg/m3 and the mass density (323.15 K, 100 kPa) was 852.43 ± 0.2 kg/m3. It also gave a mass density (323.15 K, 2500 kPa) of 855.47 ± 0.22 kg/m3, a mass density (323.15 K, 5000 kPa) of 858.54 ± 0.24 kg/m3 and a mass density (323.15 K, 10000 kPa) of 864.35 ± 0.29 kg/m3. The mass density (323.15 K, 15000 kPa) was 869.85 ± 0.33 kg/m3, the mass density (323.15 K, 20000 kPa) was 875.03 ± 0.37 kg/m3 and the mass density (323.15 K, 25000 kPa) was 879.94 ± 0.4 kg/m3. For the same compound, the mass density (323.15 K, 30000 kPa) was 884.62 ± 0.43 kg/m3, the mass density (323.15 K, 35000 kPa) was 889.1 ± 0.46 kg/m3 and the mass density (333.15 K, 100 kPa) was 840.79 ± 0.21 kg/m3. For the same compound, the mass density (333.15 K, 2500 kPa) was 844.06 ± 0.23 kg/m3, the mass density (333.15 K, 5000 kPa) was 847.37 ± 0.25 kg/m3 and the mass density (333.15 K, 10000 kPa) was 853.61 ± 0.3 kg/m3. The mass density (333.15 K, 15000 kPa) was 859.47 ± 0.34 kg/m3, the mass density (333.15 K, 20000 kPa) was 864.97 ± 0.38 kg/m3 and the mass density (333.15 K, 25000 kPa) was 870.17 ± 0.42 kg/m3. For the same compound, the mass density (333.15 K, 30000 kPa) was 875.12 ± 0.46 kg/m3 and the mass density (333.15 K, 35000 kPa) was 879.82 ± 0.49 kg/m3.
